Data taken from patent publication US20040097411A1, “Method of treating left ventricular dysfunction” (Allegheny-Singer Research Institute, priority 2002, published 2004).
Where two headings read alike, the source gives them in different places.

Legend:
[1] = cited from earlier work; for plasma insulin levels: hyperglycemia (10.4 mmol/l, 187 mg/dl), GIP 2.0, GLP-1 1.5 pmol·kg−1·min−1; for insulinotropic action: normal subjects during euglycemia
[2] = when GIP is administered; cited from earlier work
[3] = tested on: conscious, chronically instrumented dogs; assay: Acute graded infusion, hemodynamic effects in conscious chronically instrumented dogs (normal and advanced dilated cardiomyopathy); assay type: in vivo, dog
From the text: FIGS. 2a-2d show the dose response to rGLP-1 in normal conscious dogs and conscious dogs with advanced DCM compared to the response to the sympathomimetic, dobutamine.
FIG. 1 illustrates characteristic instrumentation of conscious, chronically instrumented dogs studied in the laboratory. Under sterile surgical technique, the animals are instrumented as indicated and allowed to recover fully from their surgery. At the time, they are taught to lie quietly on the experimental table before study. To determine if acute GLP-1 (7-36 amide) infusion is associated with hemodynamic effects in conscious chronically instrumented dogs, graded infusions for ten minutes at doses of 1.25, 2.5, 5, 10 and 20 pmol/kg/min in six normal dogs and in six dogs with advanced dilated cardiomyopathy were studied. The response of the graded infusion to the classic iontopic agent, Dobutamine, (2.5, 5, 7.5, 10 and 15μ/kg/min.) was compared. […] Nikolaidis, L A, Hentosz, T, Doverspike, A, et al., “Catecholamine stimulation is associated with impaired myocardial O2 utilization in heart failure,” Cardiovas. Res., 2002;53:392-404, incorporated by reference herein.

[4] = tested on: conscious dogs with advanced DCM; assay: 48 hour intravenous infusion in conscious dogs with advanced heart failure (DCM): hemodynamics, sympathetic activity, coronary vasodilation; assay type: in vivo, dog
From the text: FIGS. 3a-3d show the effects of r GLP-1 on LV systolic pressure, LV end diastolic pressure, LV dP/dt, and heart rate in conscious dogs with advanced DCM compared to saline control.
FIGS. 4a-4d show the effects of rGLP-1 on cardiac output, stroke volume, LV ejection fraction, systemic vascular resistance in conscious dogs with advanced DCM compared to saline control.
FIGS. 5a and 5b show the effects of rGLP-1 on stroke work and LV external efficiency in conscious dogs with advanced DCM compared to saline control.
FIGS. 6a and 6b show the effects of rGLP-1 on transmyocardial norepinephrine uptake as a reflection of sympathetic drive to the myocardium in conscious dogs with advanced DCM compared to saline controls.
FIGS. 7a and 7b show the effects of rGLP-1 on endothelial dependent coronary vasodilation in conscious dogs. Advanced DCM was associated with impaired coronary flow responses to acetylcholine. These responses were restored following 48-hour infusion of rGLP-1. The response to the non-endothelial dependent vasodilator, nitroglycerine was unaffected.
(§1) A 48 hour continuous intravenous infusion of GLP-1 (7-36 amide), (1.5 pmol/kg/min) in five normal dogs to determine the hemodynamic effect of chronic infusion in the absence of dilated cardiomyopathy was conducted. […] FIGS. 3-5 illustrates the effects of GLP-1 (7-36 amide) infusion (1.5 pmol/kg/min) intravenously for 48 hours in 20 conscious, chronically instrumented animals with advanced heart failure. These effects have been compared to similarly instrumented animals with advanced heart failure that received a control saline infusion of equal volume ([…]) illustrate the hemodynamic effects of chronic GLP-1 infusion in advanced DCM. GLP-1 (7-36 amide) infusion was associated with a restoration of left ventricular pressure, improvement in contractility, improvement in cardiac output, and reduction in heart rate and LVEDP. […] GLP-1 was associated with restoration of endothelial dependent vaso dilatation response to acetylcholine (FIG. 7). […] GLP-1 had […] increased plasma insulin levels in the setting of euglycemia.

[5] = tested on: adults presenting with severe acute myocardial infarction; assay: 72 hour continuous intravenous infusion in adults with severe acute myocardial infarction; assay type: in vivo, human
Protocol: The effects of continuous intravenous infusion of GLP-1 (1.5 pmol/kg/min) intravenously for 72 hours was studied in ten adults presenting with severe acute myocardial infarction. These were compared to eleven adults with similar large myocardial infarction (LVEF<35%) all of whom underwent percutaneous coronary intervention and subsequently were treated for 72 hours thereafter.

normal dogs = assay: 48 hour continuous intravenous infusion in normal dogs, hemodynamic effect; assay type: in vivo, dog; details: 1.5 pmol/kg/min i.v. 48 hour
Protocol: as §1

[6] = tested on: conscious dogs with advanced DCM; assay: Myocardial substrate uptake and metabolic parameters in dogs with advanced DCM (Table 1); assay type: in vivo, dog; details: for Glucose myocardial uptake / Lactate myocardial uptake / NE (transmyocardial norepinephrine uptake) / NEFA myocardial uptake / Insulin/Glucagon: GLP-1 group; for Insulin/Glucagon: insulin pmol/L to glucagon pg/ml
Protocol: as §1

rat cardiomyocytes = details: in vitro; cited from earlier work
restrained rats = details: rat, in vivo, sc; cited from earlier work
[7] = hyperglycemia-only control ~280
[8] = 1.5 pmol/kg/min i.v. 48 hours, advanced heart failure, vs saline
[9] = 48-hour infusion, advanced DCM, FIG. 7
[10] = graded infusions for ten minutes, 1.25-20 pmol/kg/min, normal dogs and dogs with advanced dilated cardiomyopathy
[11] = Baseline (before CHF and infusion)
[12] = advanced DCM, vs saline controls

Molecule: glucose-dependent insulinotropic polypeptide [GIP]
- plasma insulin levels ([1]; hyperglycemia-only control 47): ~150 μU/ml
- plasma insulin levels [1, 7]: ~900 pmol/L
- insulinotropic action [1]: not
- increase of B-cell sensitivity to second-generation sulfonylurea [2]: 2 fold

Molecule: CC(CCc1ccc(O)cc1)NCCc1ccc(O)c(O)c1 (stereo not drawn) [Dobutamine, reference compound]
- hemodynamic effects of graded infusion ([3]; dogs in heart failure): de-sensitized effects
- hemodynamic effects of graded infusion ([3]; normal dogs): predictable effects

Molecule: GLP-1 (7-36 amide)
- plasma insulin levels ([1]; hyperglycemia-only control 47): ~333 μU/ml
- plasma insulin levels [1, 7]: ~2000 pmol/L
- incretin potency comparison ([1]; insulinotropic action during hyperglycemia): more potent than GIP
- insulinotropic action [1]: insulinotropic
- LVEDP [4, 8]: reduction
- cardiac output [4, 8]: improvement
- contractility [4, 8]: improvement
- heart rate [4, 8]: reduction
- left ventricular pressure [4, 8]: restoration
- endothelial dependent vasodilatation (coronary flow) response to acetylcholine [4, 9]: restoration
- response to the non-endothelial dependent vasodilator nitroglycerine [4, 9]: unaffected
- endothelial dependent vasodilatation (coronary flow) response to acetylcholine ([4]; 48-hour infusion, advanced DCM, FIG. 7, listed as rGLP-1): restored
- myocardial sympathetic activity ([4]; infusion compared to saline, FIG. 6): suppression
- left ventricular hemodynamics ([5]; 1.5 pmol/kg/min i.v. 72 hours after PCI, vs standard care, FIG. 8): overall improvement
- left ventricular function ([5]; patients with large myocardial infarctions, 1.5 pmol/kg/min i.v. 72 hours): improvement
- cardiac output [3, 10]: no significant, dose related effects
- heart rate [3, 10]: no significant, dose related effects
- left ventricular dP/dt [3, 10]: no significant, dose related effects
- left ventricular pressure [3, 10]: no significant, dose related effects
- acute hemodynamic effects (dose response) ([3]; normal conscious dogs and conscious dogs with advanced DCM, FIGS. 2a-2d): no acute hemodynamic effects
- hemodynamic effects of chronic infusion (normal dogs): no significant hemodynamic effects
- Glucose myocardial uptake ([6]; 24 hrs of infusion): 8.72 ± 1.05 µmol/min
- Lactate myocardial uptake ([6]; 24 hrs of infusion): 3.61 ± 0.62 µmol/min
- NE (transmyocardial norepinephrine uptake) ([6]; 24 hrs of infusion): 26.3 ± 3.1 pmol/min
- NEFA myocardial uptake ([6]; 24 hrs of infusion): 4.53 ± 0.58 µmol/min
- Glucose myocardial uptake ([6]; 48 hrs of infusion): 7.00 ± 0.94 µmol/min
- Lactate myocardial uptake ([6]; 48 hrs of infusion): 4.04 ± 0.74 µmol/min
- NE (transmyocardial norepinephrine uptake) ([6]; 48 hrs of infusion): 30.5 ± 4.9 pmol/min
- NEFA myocardial uptake ([6]; 48 hrs of infusion): 5.16 ± 0.73 µmol/min
- Insulin/Glucagon ([6]; 48 hrs of infusion): 3.12 ± 0.24
- Glucose myocardial uptake [6, 11]: 6.67 ± 1.22 µmol/min
- Lactate myocardial uptake [6, 11]: 4.78 ± 1.04 µmol/min
- NE (transmyocardial norepinephrine uptake) [6, 11]: 30.9 ± 4.8 pmol/min
- NEFA myocardial uptake [6, 11]: 5.23 ± 0.83 µmol/min
- Insulin/Glucagon ([6]; Baseline): 1.36 ± 0.21
- Glucose myocardial uptake ([6]; CHF (before infusion)): 3.44 ± 0.81 µmol/min
- Lactate myocardial uptake ([6]; CHF (before infusion)): 2.64 ± 0.91 µmol/min
- NE (transmyocardial norepinephrine uptake) ([6]; CHF (before infusion)): 18.7 ± 3.6 pmol/min
- NEFA myocardial uptake ([6]; CHF (before infusion)): 3.17 ± 0.61 µmol/min
- Insulin/Glucagon ([6]; CHF (before infusion)): 1.79 ± 0.29
- plasma glucagon levels ([6]; advanced DCM): effective in reducing
- myocardial glucose uptake [6, 12]: enhanced
- ratio of insulin (pmol/L) to glucagon (pg/ml) [6, 12]: significant increase
- plasma insulin levels ([6]; setting of euglycemia): little effect
- cAMP (rat cardiomyocytes): increases
- myocyte contractility (rat cardiomyocytes): no effect

Molecule: exendin-4 [excendin 4]
- blood pressure (restrained rats): hypertension
- heart rate (restrained rats): tachycardia
